Legend:
[1] = test system: TZM-bl (Hela derived) cells infected with NL4.3 virus (HIV-1); assay: Confocal microscopy of cells infected with HIV-1 treated with compound 10; format: cell-based
Description: TZM-bl (Hela derived) cells were added on glass coverslips in 24-well plates (1×10^5 cells/well) and were allowed to attach to cover slips overnight. For infection NL4.3 virus (HIV-1) was added to medium to achieve 10 ng/mL P24 protein concentration along with DEAE dextran at a final concentration 15 μg/mL. After 48 hours of infection, compound 10 was added to the medium and incubated for 1 hour at 37° C. Later the infected cells were washed twice with phosphate-buffered saline (PBS) and fixed for 20 min in 4% paraformaldehyde. They were washed twice with PBS and permeabilized for 30 min in 50% ice cold methanol on ice. Blocking was carried out using 1% FBS for 30 minutes at room temperature after two washes with PBS. Cells were then incubated for 2 hours at room temperature with antibody against HIV-1 capsid protein P24 at 1:100 dilutions in PBS. The antibody was obtained from the AIDS Reference and Reagent Program (HIV-1 p24 Monoclonal Antibody-183-H12-5C, Catalogue number: 3537). The cells were washed three times in PBS before and after 1 h of incubation with anti-mouse Texas Red secondary antibody (1:250). (Texas Red® Goat Anti-Mouse IgG (H+L), catalogue number: T682, Life technologies). […]

MDA MB 468 xenografts = assay: Fluorescence imaging of HSP90 expression in mouse xenografts (IVIS imager, plate reader); format: in vivo, Mice
Description: Mice with MDA MB 468 xenografts were injected with either 0.1, 0.5 or 1 mg of compound 10 intravenously. The animals were then immediately imaged in real time in an IVIS Kinetic imager (Caliper Life Science) for the presence of fluorescence at 465ex/520em. After two hours the tumors were excised and examined for the presence of compound 10.
Red image (false, 1 vs. 2) clearly demarks the tumor over background signal (appearing very dark gray in FIG. 14A).
Measurements were made in the IVIS imager or by preparing cells extracts from the tumors and measuring their fluorescence in a microtitre plate reader.

MCF7 cells = assay: Anion exchange chromatography of extracts of cells treated with compound 10; format: cell-based; conditions: MCF7 cells treated with compound 10; peak at 49 minutes
Description: (§1) Hsp90 was purified from pig mammary gland as described in Hughes et al., Bioorg Med Chem. 2012, 20(10):3298-3305. The purified protein (0.3 g) was mixed with an excess of compound 10. The unbound probe was removed by dialysis and the labeled protein subjected to microanion exchange chromatography using a Pharmacia SMART system. Column fractions (100 μL) were collected and analyzed for fluorescence in a plate reader. […] The chromatography experiment was then repeated on cell extracts prepared from MCF7 and BT474 cells treated with compound 10.

BT474 cells = assay: as above; format: cell-based; conditions: BT474 cells treated with compound 10; peak at 49 minutes
Description: as §1

Hsp90 = assay: Recovery of drug-bound protein from tumors of mice by micro anion-exchange chromatography; format: in vivo; conditions: 1 mg IV, tumors excised after 2 hours, FIG. 17
Description: Mice were injected (IV) with 1 mg of compound 10 and the tumors were excised from the animal after 2 hours. Tissue extracts were prepared and characterized by micro anion-exchange chromatography. Column fractions were analyzed for the presence of compound 10 by fluorescence and mass spectrometry.

Cc1nn(-c2ccc(C(N)=O)c(NCCCOCCOCCOCCOCCOCCCNC(=S)Nc3ccc4c(c3)C(=O)OC43c4ccc(O)cc4Oc4cc(O)ccc43)c2)c2c1C(=O)CC(C)(C)C2 [Compound 10, 2-((1-((3′,6′-dihydroxy-3-oxo-3H-spiro[isobenzofuran-1,9′-xanthen]-5-yl)amino)-1-thioxo-6,9,12,15,18-pentaoxa-2-azahenicosan-21-yl)amino)-4-(3,6,6-trimethyl-4-oxo-4,5,6,7-tetrahydro-1H-indazol-1-yl)benzamide]
detection of HIV infected cells ([1]; 48 hours of infection, 1 hour at 37° C., FIG. 16): can be used to detect cells infected with HIV | recognition of uninfected cells ([1]; FIG. 16 panel D): do not recognize uninfected cells | accumulation in tumors isolated from mice (MDA MB 468 xenografts; indicated doses, IVIS imager or tumor cell extracts in plate reader, FIG. 14B, 14C): accumulates selectively within the tumor mass in a dose dependent manner | accumulation in the xenograft, real time imaging (MDA MB 468 xenografts; tail vein injection, 465ex/520em, FIG. 14A): rapid accumulation | fluorescence peak of cell extract (MCF7 cells): co-elutes with Hsp90 | fluorescence peak of cell extract (BT474 cells): co-elutes with Hsp90 | two minor peaks of fluorescence of tumor extract (Hsp90; fractions 27-35): attributable to binding to degraded forms of the N terminal domain of Hsp90 | major peak of fluorescence of tumor extract (Hsp90; fractions 49-53): correlates with elution of full length Hsp90

From patent US10927115B2, “Substituted heterocycles for targeting Hsp90” (Duke University, priority 2012, dated 2021)
